Laboratory results from the NIST ThermoML archive (doi:10.1016/j.jct.2009.05.006).
Numbers after ± are expanded uncertainties.

Tests used:
[1] = xn = mol fraction of the nth substance listed; settings: 298.15 K, 101 kPa, Liquid, Vibrating tube method
[2] = excess molar enthalpy (molar enthalpy of mixing); xn = mol fraction of the nth substance listed; settings: 298.15 K, 101 kPa, Liquid, Calvet calorimetry

BrCCCCBr [1,4-dibromobutane] + CCCCOC=O
Settings | excess molar enthalpy [kcal/mol] | mass density [kg/m3]
[1], x2 = 0.0702 | – | 1756.08 ± 0.94
[1], x2 = 0.1221 | – | 1708.91 ± 0.89
[1], x2 = 0.1836 | – | 1652.89 ± 0.83
[1], x2 = 0.241 | – | 1600.45 ± 0.78
[1], x2 = 0.3018 | – | 1544.61 ± 0.72
[1], x2 = 0.4249 | – | 1431.07 ± 0.61
[1], x2 = 0.4765 | – | 1383.26 ± 0.57
[1], x2 = 0.5374 | – | 1326.55 ± 0.52
[1], x2 = 0.6529 | – | 1218.52 ± 0.42
[1], x2 = 0.7677 | – | 1110.31 ± 0.33
[1], x2 = 0.8248 | – | 1056.19 ± 0.29
[1], x2 = 0.8824 | – | 1001.42 ± 0.25
[1], x2 = 0.9353 | – | 950.88 ± 0.25
[2], x2 = 0.0646 | 0.0177 ± 0.000478 | –
[2], x2 = 0.1478 | 0.0315 ± 0.000717 | –
[2], x2 = 0.2392 | 0.0423 ± 0.000956 | –
[2], x2 = 0.3291 | 0.0488 ± 0.0012 | –
[2], x2 = 0.4058 | 0.0504 ± 0.0012 | –
[2], x2 = 0.4726 | 0.0488 ± 0.0012 | –
[2], x2 = 0.5295 | 0.0466 ± 0.000956 | –
[2], x2 = 0.5817 | 0.0435 ± 0.000956 | –
[2], x2 = 0.6425 | 0.0387 ± 0.000956 | –
[2], x2 = 0.7078 | 0.033 ± 0.000717 | –
[2], x2 = 0.7787 | 0.0253 ± 0.000717 | –
[2], x2 = 0.8648 | 0.0165 ± 0.000478 | –
[2], x2 = 0.9404 | 0.00669 ± 0.000239 | –

BrCCCCCCBr [1,6-dibromohexane] + CCCCOC(=O)CC
Settings | excess molar enthalpy, [2] [kcal/mol] | mass density, [1] [kg/m3]
x2 = 0.0686 | – | 1552.3 ± 0.73
x2 = 0.0731 | 0.00669 ± 0.000239 | –
x2 = 0.1212 | – | 1514.66 ± 0.69
x2 = 0.1582 | 0.0117 ± 0.000478 | –
x2 = 0.1829 | – | 1470.4 ± 0.65
x2 = 0.2418 | 0.0136 ± 0.000478 | 1427.98 ± 0.61
x2 = 0.2995 | – | 1386.24 ± 0.57
x2 = 0.3151 | 0.012 ± 0.000478 | –
x2 = 0.3861 | 0.00621 ± 0.000239 | –
x2 = 0.4152 | – | 1302.26 ± 0.49
x2 = 0.4485 | 0.000239 ± 0.000239 | –
x2 = 0.4752 | – | 1258.56 ± 0.45
x2 = 0.5064 | -0.00669 ± 0.000239 | –
x2 = 0.5318 | -0.0105 ± 0.000239 | –
x2 = 0.5419 | -0.0108 ± 0.000239 | –
x2 = 0.5954 | – | 1170.51 ± 0.38
x2 = 0.596 | -0.0143 ± 0.000478 | –
x2 = 0.6527 | – | 1128.4 ± 0.34
x2 = 0.6658 | 0.016 ± 0.000478 | –
x2 = 0.7123 | – | 1084.48 ± 0.31
x2 = 0.7456 | 0.0158 ± 0.000478 | –
x2 = 0.7652 | – | 1045.44 ± 0.28
x2 = 0.8249 | – | 1001.25 ± 0.24
x2 = 0.834 | 0.0127 ± 0.000478 | –
x2 = 0.8847 | – | 956.84 ± 0.24
x2 = 0.9306 | 0.00526 ± 0.000239 | –
x2 = 0.9365 | – | 918.31 ± 0.24

CCCCOC(=O)CCC [butyl butanoate] + BrCCCCCCBr
Settings | excess molar enthalpy [kcal/mol] | mass density [kg/m3]
[1], x1 = 0.0615 | – | 1551.3 ± 0.73
[1], x1 = 0.114 | – | 1509.95 ± 0.69
[1], x1 = 0.1733 | – | 1463.7 ± 0.64
[1], x1 = 0.2207 | – | 1427.05 ± 0.61
[1], x1 = 0.2782 | – | 1383.1 ± 0.56
[1], x1 = 0.3299 | – | 1343.86 ± 0.53
[1], x1 = 0.3955 | – | 1294.64 ± 0.48
[1], x1 = 0.4505 | – | 1253.75 ± 0.45
[1], x1 = 0.5089 | – | 1210.69 ± 0.41
[1], x1 = 0.5674 | – | 1168 ± 0.37
[1], x1 = 0.6293 | – | 1123.3 ± 0.34
[1], x1 = 0.68 | – | 1087.08 ± 0.31
[1], x1 = 0.7477 | – | 1039.01 ± 0.27
[1], x1 = 0.8082 | – | 996.64 ± 0.24
[1], x1 = 0.8735 | – | 951.23 ± 0.24
[1], x1 = 0.9358 | – | 908.5 ± 0.24
[2], x1 = 0.0751 | 0.00502 ± 0.000239 | –
[2], x1 = 0.1669 | 0.00693 ± 0.000239 | –
[2], x1 = 0.2609 | 0.00669 ± 0.000239 | –
[2], x1 = 0.3471 | 0.00454 ± 0.000239 | –
[2], x1 = 0.418 | 0.000478 ± 0.000239 | –
[2], x1 = 0.4834 | -0.00406 ± 0.000239 | –
[2], x1 = 0.5223 | -0.00789 ± 0.000239 | –
[2], x1 = 0.5361 | -0.0086 ± 0.000239 | –
[2], x1 = 0.5892 | -0.0105 ± 0.000239 | –
[2], x1 = 0.6544 | -0.0115 ± 0.000478 | –
[2], x1 = 0.7475 | -0.0115 ± 0.000478 | –
[2], x1 = 0.8287 | -0.00956 ± 0.000239 | –
[2], x1 = 0.9253 | -0.00502 ± 0.000239 | –

CCCCOC(=O)CCC [butyl butanoate] + BrCCCCBr
Settings | excess molar enthalpy [kcal/mol] | mass density [kg/m3]
[1], x1 = 0.0459 | – | 1757.74 ± 0.95
[1], x1 = 0.1377 | – | 1643.47 ± 0.83
[1], x1 = 0.1788 | – | 1594.83 ± 0.78
[1], x1 = 0.2814 | – | 1479.86 ± 0.66
[1], x1 = 0.3346 | – | 1423.4 ± 0.61
[1], x1 = 0.3891 | – | 1367.86 ± 0.55
[1], x1 = 0.5003 | – | 1260.78 ± 0.46
[1], x1 = 0.5704 | – | 1197.33 ± 0.4
[1], x1 = 0.6285 | – | 1146.9 ± 0.36
[1], x1 = 0.7046 | – | 1083.68 ± 0.31
[1], x1 = 0.7684 | – | 1032.96 ± 0.27
[1], x1 = 0.8513 | – | 970.06 ± 0.24
[1], x1 = 0.9156 | – | 923.4 ± 0.24
[2], x1 = 0.0526 | 0.00645 ± 0.000239 | –
[2], x1 = 0.1195 | 0.0117 ± 0.000478 | –
[2], x1 = 0.1947 | 0.0139 ± 0.000478 | –
[2], x1 = 0.2716 | 0.0117 ± 0.000478 | –
[2], x1 = 0.3471 | 0.0055 ± 0.000239 | –
[2], x1 = 0.4134 | -0.00263 ± 0.000239 | –
[2], x1 = 0.471 | -0.0117 ± 0.000478 | –
[2], x1 = 0.5005 | -0.0155 ± 0.000478 | –
[2], x1 = 0.579 | -0.0206 ± 0.000478 | –
[2], x1 = 0.6761 | -0.0222 ± 0.000478 | –
[2], x1 = 0.7901 | -0.0196 ± 0.000478 | –
[2], x1 = 0.9017 | -0.0122 ± 0.000478 | –
